Assay [1] concerns the target T1, human muscle cell-derived aldose reductase (Homo sapiens, UniProt P15121).
T1 construct: purchased Wako Pure Chemical Industries, Ltd
As to the kind of experiment: Inhibitory action for aldose reductase (change in NADPH absorbance at 340 nm, methylglyoxal substrate). Format: biochemical. On the procedure: Inhibitory action for aldose reductase of the extract from the root portion of Angelica keiskei koidz. was determined in accordance with the following method. As a sample, 20 μL of a 100 mM methylglyoxal solution was added to 10 μL of each of the kinds of ethanol extracts from the root portion of Angelica keiskei koidz. prepared in Example 4, and 10 μL of the water extract from the root portion of Angelica keiskei koidz. prepared in Preparation Example 1 (a solution prepared by dissolving the extract in a 50% aqueous dimethyl sulfoxide solution), 100 μL of 0.2 M phosphate buffer (pH 6.2), 20 μL of 1 mM NADPH (phosphate buffer), and 10 μL of a human muscle cell-derived aldose reductase solution (0.1 U/mL, manufactured by Wako Pure Chemical Industries, Ltd., phosphate buffer). For a period of 180 seconds after 30 seconds passed, the change in absorbance of NADPH at 340 nm was determined. As a negative control, a 50% aqueous dimethyl sulfoxide solution was used in place of the sample. Also, the absorbance was determined using distilled water as a blank solution for each sample in place of the methylglyoxal solution. The determination values were expressed as an average of two experimental values. The inhibitory ratio (%) for aldose reductase was calculated in accordance with the following formula: Inhibitory Ratio (%)=[1−(ΔAs−ΔAsb)/(ΔAc−ΔAcb)]×100, wherein ΔAs and ΔAc show a change in the absorbance of each of the sample solution and the negative control solution per minute; and ΔAsb and ΔAcb show a change in the absorbance of the blank solutions for the sample solution and the negative control solution per minute.
The inhibitory activity for aldose reductase of the extract from the leaf and stem portions of Angelica keiskei koidz. prepared in Example 3 was determined in the same manner as in Example 8.

Assay [2] deals with Preadipocyte cell line 3T3-L1. Description: Induction of differentiation into adipocytes (amount of triglyceride biosynthesis). The format is cell-based. The note with it: isolated compounds at final 1-30 μM; seven days after addition. On the procedure: The induction of differentiation into adipocytes was carried out by partially modifying the method of Rubin C. S. et al. (J. Biol. Chem., Vol. 253, No. 20, p7570-7578 (1978)). Preadipocyte cell line 3T3-L1 (ATCC CCL-92.1) was suspended in a 10% fetal bovine serum (manufactured by GIBCO)-containing Dulbecco's modified Eagle's medium (manufactured by Sigma, D6046) containing 200 μM ascorbic acid (hereinafter referred to as A-D-MEM medium) so as to have a density of 4×10^3 cells/mL, and the suspension was put in each well of a 12-well microtiter plate in an amount of 2 mL per well. The cells were cultured at 37° C. for 7 days in the presence of 5% carbon dioxide gas. The medium was exchanged with the same medium on the second day and the fourth day. On the seventh day, the medium was exchanged with A-D-MEM medium containing 0.25 μM dexamethasone. […] Here, there were set a group with addition of 4 μL of a 5 mg/mL aqueous solution of insulin (manufactured by TAKARA BIO INC.) as a positive control, and a group with addition of dimethyl sulfoxide as a negative control. After 45 hours, the medium was exchanged with A-D-MEM medium. […] The cells were cultured for additional 7 days.
The amount of triglyceride in the adipocytes was determined as an index for inducing differentiation into matured adipocytes, and as evaluation of insulin-mimetic action. After the termination of the culture, the medium was removed, and the cells were washed twice with a phosphate buffered saline. One milliliter of a solvent of hexane: isopropanol=3:2 was added thereto. The mixture was allowed to stand at room temperature for 30 minutes, and thereafter the supernatant was collected. The procedures were repeated again, and 2 mL of the resulting supernatant was concentrated to dryness. The precipitate was dissolved in 100 μL of isopropanol, and thereafter the amount of triglyceride contained in 10 μL of the resulting solution was determined with Triglyceride E-Test (manufactured by Wako Pure Chemical Industries, Ltd., code 432-40201). All of the determinations were carried out twice.
Specifically, as a sample, there was set a group with addition of the dimethyl sulfoxide solution of the extract from the root portion of Angelica keiskei koidz. with the 40% aqueous ethanol solution at a final concentration of 0.1% or 0.033%, the dimethyl sulfoxide solution of the extract from the root portion of Angelica keiskei koidz. with the 50% aqueous ethanol solution at a final concentration of 0.033% or 0.011%, the dimethyl sulfoxide solution of the extract from the root portion of Angelica keiskei koidz. with the 70% aqueous ethanol solution at a final concentration of 0.022%, the dimethyl sulfoxide solution of the extract from the root portion of Angelica keiskei koidz. with the 60% or 80% aqueous ethanol solution or the dimethyl sulfoxide solution of the extract with the 100% ethanol so as to have a final concentration of 0.067% or 0.022%, respectively, to each well. Here, there were set a group with addition of 4 μL of a 5 mg/mL aqueous solution of insulin (manufactured by TAKARA BIO INC.) as a positive control, and a group with addition of dimethyl sulfoxide as a negative control. Thereafter, the medium and the sample were exchanged in the same manner as in the method described in Example 5, and after seven days from the addition of the sample, the amount of triglyceride in the adipocytes was determined.
Here, there were set a group with addition of 4 μL of a 5 mg/mL aqueous solution of insulin (manufactured by TAKARA BIO INC.) as a positive control, and a group with addition of dimethyl sulfoxide as a negative control. Thereafter, the medium and the sample were exchanged in the same manner as in the method described in Example 5, and after seven days from the addition of the sample, the amount of triglyceride in the adipocytes was determined.

`CC(C)=CCc1c(O)ccc(C(=O)/C=C/c2ccc(O)cc2)c1O` [Isobavachalcone, isobavachalcone]: the “Inhibitory Ratio (%) of Aldose Reductase” value in assay [1] (10 μM) was found to be 30.2%; in assay [1] (20 μM), 47.4%; in assay [1] (40 μM), 60.1%. Further, the “induction of biosynthesis of triglyceride (inducing action on differentiation into mature adipocytes)” value in assay [2] is reported as “induction of biosynthesis of triglyceride was found”.

As for xanthoangelol H, the “Inhibitory Ratio (%) of Aldose Reductase” value is 40.4% in assay [1] (2.5 μM), 57.8% in assay [1] (5 μM), 72.2% in assay [1] (10 μM) and 80.8% in assay [1] (20 μM). In addition, the “induction of biosynthesis of triglyceride (inducing action on differentiation into mature adipocytes)” value in assay [2] is “induction of biosynthesis of triglyceride was found”.

These data come from US20070092587A1, “Extract from plant of japanese parsley family and process for producing the same” (priority 2004, published 2007).
